Data taken from patent US20100298141A1, “SUBSTITUTED PYRIDINE N-OXIDE HERBICIDES” (E. I. DU PONT DE NEMOURS AND COMPANY, priority 2007, published 2010).

Key:
lambsquarters = test: Test C pre-/postemergence test; type: in vivo, Chenopodium album; settings: Postemergence; for Plant response rating, Lambsquarters: scale 0 to 100, 0 no effect, 100 complete control
Text: (§1) Seeds of plant species selected from blackgrass (Alopecurus myosuroides), downy brome (Bromus tectorum), green foxtail (Setaria viridis), Italian ryegrass (Lolium multiflorum), wheat (Triticum aestivum), wild oat (Avena fatua), catchweed bedstraw (Galium aparine), Russian thistle (Salsola kali), […] (Cynodon dactylon), Surinam grass (Brachiaria decumbens), cocklebur (Xanthium strumarium), corn (Zea mays), crabgrass (Digitaria sanguinalis), woolly cupgrass (Eriochloa villosa), giant foxtail (Setaria faberii), Goosegrass (Eleusin indica), johnsongrass (Sorghum halepense), kochia (Kochia scoparia), lambsquarters (Chenopodium album), morningglory (Ipomoea coccinea), eastern black nightshade (Solanum ptycanthum), yellow nutsedge (Cyperus esculentus), pigweed (Amaranthus retroflexus), common ragweed (Ambrosia elation), soybean (Glycine max), common (oilseed) sunflower (Helianthus annuus), and velvetleaf (Abutilon theophrasti) were planted and treated preemergence with test chemicals formulated in a non-phytotoxic solvent mixture which included a surfactant. At the same time, plants selected from these crop and weed species and also winter barley (Hordeum vulgare), canarygrass (Phalaris minor), and chickweed (Stellaria media) were treated with postemergence applications of some of the test chemicals formulated in the same manner. Plants ranged in height from 2 to 18 cm (1- to 4-leaf stage) for postemergence treatments. […] At time of treatment, test pots were flooded to 3 cm above the soil surface, treated by application of test compounds directly to the paddy water, and then maintained at that water depth for the duration of the test. […] A dash (-) response means no test result.

blackgrass = test: Test C pre-/postemergence test; type: in vivo, Alopecurus myosuroides; settings: Postemergence; for Plant response rating, Blackgrass: scale 0 to 100, 0 no effect, 100 complete control
Text: as §1

kochia = test: Test C pre-/postemergence test; type: in vivo, Kochia scoparia; settings: Postemergence; for Plant response rating, Kochia: scale 0 to 100, 0 no effect, 100 complete control
Text: as §1

common ragweed = test: Test C pre-/postemergence test; type: in vivo, Ambrosia elation; settings: Postemergence; for Plant response rating, Ragweed: scale 0 to 100, 0 no effect, 100 complete control
Text: as §1

wheat [1] = test: Test C pre-/postemergence test; type: in vivo, Triticum aestivum; settings: Postemergence; for Plant response rating, Wheat: scale 0 to 100, 0 no effect, 100 complete control
Text: as §1

woolly cupgrass = test: Test C pre-/postemergence test; type: in vivo, Eriochloa villosa; settings: Postemergence; for Plant response rating, Cupgrass, Woolly: scale 0 to 100, 0 no effect, 100 complete control
Text: as §1

Surinam grass = test: Test C pre-/postemergence test; type: in vivo, Brachiaria decumbens; settings: Postemergence; for Plant response rating, Surinam Grass: scale 0 to 100, 0 no effect, 100 complete control
Text: as §1

cocklebur = test: Test C pre-/postemergence test; type: in vivo, Xanthium strumarium; settings: Postemergence; for Plant response rating, Cocklebur: scale 0 to 100, 0 no effect, 100 complete control
Text: as §1

redroot pigweed = test: Test A pre-/postemergence greenhouse test; type: in vivo, Amaranthus retroflexus; settings: for Plant response rating, Pigweed: 0 to 100 scale where 0 is no effect and 100 is complete control; for Pigweed plant response rating: 0 to 100 scale
Summary of the method: (§2)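 Sowing in loam/sand; same-day pre (directed soil spray) and post (foliar, 1–2 leaf, 2–10 cm) treatment with surfactant-containing non-phytotoxic solvent formulation; ~10 days in greenhouse; eye-scored injury against untreated plants.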

velvetleaf = test: Test C pre-/postemergence test; type: in vivo, Abutilon theophrasti; settings: Postemergence; for Plant response rating, Velvetleaf: scale 0 to 100, 0 no effect, 100 complete control
Text: as §1

downy brome = test: Test C pre-/postemergence test; type: in vivo, Bromus tectorum; settings: Postemergence; for Plant response rating, Bromegrass, Downy: scale 0 to 100, 0 no effect, 100 complete control
Text: as §1

giant foxtail [2] = test: Test C pre-/postemergence test; type: in vivo, Setaria faberii; settings: Postemergence; for Plant response rating, Foxtail, Giant: scale 0 to 100, 0 no effect, 100 complete control
Text: as §1

giant foxtail [3] = test: Test A pre-/postemergence greenhouse test; type: in vivo, Setaria faberi; settings: for Plant response rating, Foxtail, Giant: 0 to 100 scale where 0 is no effect and 100 is complete control; for Foxtail, Giant plant response rating: 0 to 100 scale
Summary of the method: as §2

morningglory = test: Test A pre-/postemergence greenhouse test; type: in vivo, Ipomoea spp.; settings: for Plant response rating, Morningglory: 0 to 100 scale where 0 is no effect and 100 is complete control; for Morningglory plant response rating: 0 to 100 scale
Summary of the method: as §2

wheat [4] = test: Test A pre-/postemergence greenhouse test; type: in vivo, Triticum aestivum; settings: for Plant response rating, Wheat: 0 to 100 scale where 0 is no effect and 100 is complete control; for Wheat plant response rating: 0 to 100 scale
Summary of the method: as §2

wild oat = test: Test C pre-/postemergence test; type: in vivo, Avena fatua; settings: Postemergence; for Plant response rating, Oat, Wild: scale 0 to 100, 0 no effect, 100 complete control
Text: as §1

[5] = Postemergence, 500 g ai/ha, 0 is no effect, 100 is complete control
[6] = Preemergence, 125 g ai/ha, 0 no effect, 100 complete control

Cn1nc(C(F)(F)F)c(C[S+]([O-])c2cccc[n+]2[O-])c1OCC(F)(F)C(F)(F)F (stereo not shown) [Compound 78]
Plant response rating (0 to 100), Lambsquarters (lambsquarters; 31 g ai/ha): 0 | Plant response rating, Lambsquarters (lambsquarters; 62 g ai/ha): 0 | Plant response rating, Lambsquarters (lambsquarters; 125 g ai/ha): 0 | Plant response rating, Lambsquarters (lambsquarters; 250 g ai/ha): 0 | Plant response rating (0 to 100), Blackgrass (blackgrass; 31 g ai/ha): 0 | Plant response rating, Blackgrass (blackgrass; 62 g ai/ha): 0 | Plant response rating, Blackgrass (blackgrass; 125 g ai/ha): 50 | Plant response rating, Blackgrass (blackgrass; 250 g ai/ha): 100 | Plant response rating (0 to 100), Kochia (kochia; 31 g ai/ha): 0 | Plant response rating, Kochia (kochia; 62 g ai/ha): 0 | Plant response rating, Kochia (kochia; 125 g ai/ha): 0 | Plant response rating, Kochia (kochia; 250 g ai/ha): 0 | Plant response rating (0 to 100), Ragweed (common ragweed; 31 g ai/ha): 0 | Plant response rating (0 to 100), Ragweed (common ragweed; 62 g ai/ha): 0 | Plant response rating, Ragweed (common ragweed; 125 g ai/ha): 0 | Plant response rating, Ragweed (common ragweed; 250 g ai/ha): 0 | Plant response rating (0 to 100), Wheat (wheat [1]; 31 g ai/ha): 0 | Plant response rating (0 to 100), Wheat (wheat [1]; 62 g ai/ha): 0 | Plant response rating, Wheat (wheat [1]; 125 g ai/ha): 10 | Plant response rating, Wheat (wheat [1]; 250 g ai/ha): 10 | Plant response rating (0 to 100), Cupgrass, Woolly (woolly cupgrass; 31 g ai/ha): 0 | Plant response rating, Cupgrass, Woolly (woolly cupgrass; 62 g ai/ha): 0 | Plant response rating, Cupgrass, Woolly (woolly cupgrass; 125 g ai/ha): 0 | Plant response rating, Cupgrass, Woolly (woolly cupgrass; 250 g ai/ha): 20 | Plant response rating (0 to 100), Surinam Grass (Surinam grass; 31 g ai/ha): 0 | Plant response rating (0 to 100), Surinam Grass (Surinam grass; 62 g ai/ha): 0 | Plant response rating, Surinam Grass (Surinam grass; 125 g ai/ha): 0 | Plant response rating, Surinam Grass (Surinam grass; 250 g ai/ha): 70 | Plant response rating (0 to 100), Cocklebur (cocklebur; 31 g ai/ha): 0 | Plant response rating, Cocklebur (cocklebur; 62 g ai/ha): 0 | Plant response rating, Cocklebur (cocklebur; 125 g ai/ha): 0 | Plant response rating, Cocklebur (cocklebur; 250 g ai/ha): 0 | Plant response rating, Pigweed (redroot pigweed; Postemergence, 125 g ai/ha): 50 | Pigweed plant response rating (redroot pigweed; [5]): 60 | Pigweed plant response rating (redroot pigweed; [6]): 10 | Plant response rating, Pigweed (redroot pigweed; Preemergence, 500 g ai/ha): 100 | Plant response rating (0 to 100), Velvetleaf (velvetleaf; 31 g ai/ha): 0 | Plant response rating (0 to 100), Velvetleaf (velvetleaf; 62 g ai/ha): 0 | Plant response rating, Velvetleaf (velvetleaf; 125 g ai/ha): 0 | Plant response rating, Velvetleaf (velvetleaf; 250 g ai/ha): 20 | Plant response rating (0 to 100), Bromegrass, Downy (downy brome; 31 g ai/ha): 0 | Plant response rating, Bromegrass, Downy (downy brome; 62 g ai/ha): 0 | Plant response rating, Bromegrass, Downy (downy brome; 125 g ai/ha): 0 | Plant response rating, Bromegrass, Downy (downy brome; 250 g ai/ha): 0 | Plant response rating (0 to 100), Foxtail, Giant (giant foxtail [2]; 31 g ai/ha): 0 | Plant response rating, Foxtail, Giant (giant foxtail [2]; 62 g ai/ha): 0 | Plant response rating, Foxtail, Giant (giant foxtail [2]; 125 g ai/ha): 45 | Plant response rating, Foxtail, Giant (giant foxtail [2]; 250 g ai/ha): 45 | Plant response rating, Foxtail, Giant (giant foxtail [3]; Postemergence, 125 g ai/ha): 80 | Foxtail, Giant plant response rating (giant foxtail [3]; [5]): 80 | Foxtail, Giant plant response rating (giant foxtail [3]; [6]): 90 | Plant response rating, Foxtail, Giant (giant foxtail [3]; Preemergence, 500 g ai/ha): 100 | Plant response rating, Morningglory (morningglory; Postemergence, 125 g ai/ha): 30 | Morningglory plant response rating (morningglory; [5]): 60 | Morningglory plant response rating (morningglory; [6]): 20 | Plant response rating, Morningglory (morningglory; Preemergence, 500 g ai/ha): 80 | Plant response rating, Wheat (wheat [4]; Postemergence, 125 g ai/ha): 30 | Wheat plant response rating (wheat [4]; [5]): 60 | Wheat plant response rating (wheat [4]; [6]): 30 | Plant response rating, Wheat (wheat [4]; Preemergence, 500 g ai/ha): 100 | Plant response rating (0 to 100), Oat, Wild (wild oat; 31 g ai/ha): 0 | Plant response rating, Oat, Wild (wild oat; 62 g ai/ha): 0 | Plant response rating, Oat, Wild (wild oat; 125 g ai/ha): 0 | Plant response rating, Oat, Wild (wild oat; 250 g ai/ha): 0
